# From US6420455B1, “Antimicrobial composition containing photosensitizers articles, and methods of use” (3M Innovative Properties Company, priority 1999, dated 2002)
# Columns and labels:
# Experiment in all cases: Zone of inhibition of dye-dipped filter disks on agar lawn
# E. faecium = type: cell-based, Enterococcus faecium; details: for Zone of Inhibition in Dark: 10 mg/ml dye on 6-mm disk
# Method: (§1) The procedure used for testing for antibacterial and antifungal activity is as follows.
# (§2) Bacteria or fungi stock was plated onto Trypticase Soy Broth (TSB) agar (Becton Dickinson, Cockeysville, Md.) and incubated at 37° C. overnight, at which time several colonies were transferred to phosphate buffered saline (PBS) to give a solution with final concentration of 10^6 bacteria/ml or fungi/ml, as determined by comparison of turbidity with McFarland standards. Subsequently, a lawn of the bacterium or fungus was prepared by triple swabbing a Trypticase Soy broth agar plate (prepared using TSB and agar according to label instructions). Then, 6-mm diameter paper filter disks were dipped into one of the dyed solutions, blotted to remove the excess solution, and placed on the agar plates. Each plate was then either kept in the dark (control) or irradiated for 15 minutes in room light or for overnight in room light before incubation at 37° C. for 24 hours.
# (§3) The plates were removed from the incubator and inspected for clear areas surrounding treated 6-mm filter disks that are indicative of prevention of growth of bacteria. The diameter of each clear area was measured and recorded and compared with controls.
# C. albicans = type: cell-based, Candida albicans; details: for Zone of Inhibition in Dark: 10 mg/ml dye on 6-mm disk
# Method: as §1, §2, §3
# E. coli = type: cell-based, Escherichia coli; details: for Zone of Inhibition in Dark: 10 mg/ml dye on 6-mm disk
# Method: as §1, §2, §3
# Staph. Aureus = type: cell-based, Staphylococcus aureus; details: for Zone of Inhibition in Dark: 10 mg/ml dye in water on 6-mm disk; for Zone of Inhibition in Room Light, 15 Minutes / Zone of Inhibition in Room Light Overnight / Zone of Inhibition in Room Light (after 30 min.): 10 mg/ml dye on 6-mm disk
# Method: as §1
# as §2, with “Each plate was then either kept in the dark (control) or irradiated for 15 minutes in room light or for overnight in room light before incubation at 37° C. for 24 hours.” left out
# as §3
# Salmonella spp. = type: cell-based; details: for Zone of Inhibition in Dark: 10 mg/ml dye on 6-mm disk
# Method: as §1, §2, §3
# P. aeruginosa = type: cell-based, Pseudomonas aeruginosa; details: for Zone of Inhibition in Dark: 10 mg/ml dye on 6-mm disk
# Method: as §1, §2, §3
Structure (SMILES),Zone of Inhibition in Dark (E. faecium) [mm],"Zone of Inhibition in Room Light, 15 Minutes (E. faecium) [mm]",Zone of Inhibition in Room Light Overnight (E. faecium) [mm],Zone of Inhibition in Dark (C. albicans) [mm],"Zone of Inhibition in Room Light, 15 Minutes (C. albicans) [mm]",Zone of Inhibition in Room Light Overnight (C. albicans) [mm],Zone of Inhibition in Dark (E. coli) [mm],"Zone of Inhibition in Room Light, 15 Minutes (E. coli) [mm]",Zone of Inhibition in Room Light Overnight (E. coli) [mm],Zone of Inhibition in Dark (Staph. Aureus) [mm],"Zone of Inhibition in Room Light, 15 Minutes (Staph. Aureus) [mm]",Zone of Inhibition in Room Light Overnight (Staph. Aureus) [mm],Zone of Inhibition in Dark (Salmonella spp.) [mm],"Zone of Inhibition in Room Light, 15 Minutes (Salmonella spp.) [mm]",Zone of Inhibition in Room Light Overnight (Salmonella spp.) [mm],Zone of Inhibition in Dark (P. aeruginosa) [mm],"Zone of Inhibition in Room Light, 15 Minutes (P. aeruginosa) [mm]",Zone of Inhibition in Room Light Overnight (P. aeruginosa) [mm],Zone of Inhibition in Room Light (after 30 min.) (Staph. Aureus) [mm]
O=C([O-])c1c(Cl)c(Cl)c(Cl)c(Cl)c1-c1c2cc(I)c(=O)c(I)c-2oc2c(I)c([O-])c(I)cc12.[Na+].[Na+] [Rose Bengal disodium salt],19,19,34,0,0,13,0,0,11,23,21,36,7,8,19,0,0,13,–
Cc1cc2nc3ccc(N(C)C)cc3[s+]c2cc1N.[Cl-] [Toluidine Blue O],–,–,–,–,–,–,–,–,–,20,–,–,–,–,–,–,–,–,19
CN(C)c1ccc2nc3ccc(=[N+](C)C)cc-3sc2c1 [Methylene Blue],16,16,19,12,12,18,8,0,0,18,20,28,0,0,0,0,0,0,–
CN(C)c1ccc(C(=C2C=CC(=[N+](C)C)C=C2)c2ccc(N(C)C)cc2)cc1 [Crystal Violet],–,–,–,–,–,–,–,–,–,30,–,–,–,–,–,–,–,–,30
